Experimental findings from patent US8293769B2, “CSF-1R inhibitors, compositions, and methods of use” (Novartis AG, priority 2008, dated 2012) are described below.

In test [1] the target is T1, cytoplasmic domain of the human CSF-1R (Homo sapiens, UniProt P07333).
T1 construct: Recombinant protein corresponding to the cytoplasmic domain of the human CSF-1R; purchased Invitrogen Corporation, Carlsbad, Calif; PV3249
T1 sequence (P07333 539-972 limits assumed): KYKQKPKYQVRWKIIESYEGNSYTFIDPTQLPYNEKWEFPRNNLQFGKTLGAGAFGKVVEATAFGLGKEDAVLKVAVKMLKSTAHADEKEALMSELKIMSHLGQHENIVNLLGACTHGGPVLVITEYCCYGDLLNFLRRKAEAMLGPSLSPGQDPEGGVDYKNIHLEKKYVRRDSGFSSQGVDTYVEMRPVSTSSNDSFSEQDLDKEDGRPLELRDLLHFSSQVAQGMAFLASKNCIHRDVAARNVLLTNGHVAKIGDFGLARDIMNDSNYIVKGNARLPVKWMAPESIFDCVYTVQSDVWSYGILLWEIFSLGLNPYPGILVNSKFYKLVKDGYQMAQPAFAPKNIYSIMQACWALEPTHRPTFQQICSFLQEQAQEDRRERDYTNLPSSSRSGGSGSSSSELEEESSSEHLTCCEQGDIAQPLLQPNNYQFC
The experiment in a line: In vitro kinase assay for CSF-1R (AlphaScreen). The test is classed as biochemical. The following applies: tested at about 1 μM; read-out: CSF1RK 1 percent inhibition. As for the experimental part: The kinase activity of various protein tyrosine kinases can be measured by providing ATP and a suitable peptide or protein tyrosine-containing substrate, and assaying the transfer of phosphate moiety to the tyrosine residue. Recombinant protein corresponding to the cytoplasmic domain of the human CSF-1R was purchased from Invitrogen Corporation, Carlsbad, Calif. U.S.A. (#PV3249). For each assay, test compounds were serially diluted, starting at 25 μM with 3 fold dilutions, in DMSO in 384 well plates then mixed with an appropriate kinase reaction buffer consisting of 50 mM Hepes, 5 mM MgCl2, 10 mM MnCl2, 0.1% BSA, pH 7.5, 1.0 mM dithiothreitol, 0.01% Tween 80 plus 1 μM ATP. Kinase protein and an appropriate biotinylated peptide substrate at 50 nM were added to give a final volume of 20 μL, reactions were incubated for 2 hours at room temperature and stopped by the addition of 10 μL of 45 mM EDTA, 50 mM Hepes pH 7.5. Added to the stopped reaction mix was 30 μL of PT66 Alphascreen beads (Perkin Elmer, Boston, Mass., U.S.A.). The reaction was incubated overnight and read on the Envision (Perkin Elmer). Phosphorylated peptide product was measured with the AlphaScreen system (Perkin Elmer) using acceptor beads coated with anti-phosphotyrosine antibody PT66 and donor beads coated with streptavidin that emit a fluorescent signal at the 520-620 nm emission wave length if in close proximity. The concentration of each compound for 50% inhibition (IC50) was calculated by non-linear regression using XL Fit data analysis software.
CSF-1R kinase was assayed in 50 mM Hepes pH 7.0, 5 mM MgCl2, 10 mM MnCl2, 1 mM DTT, 1 mg/mL BSA, 1.0 μM ATP, and 0.05 μM biotin-GGGGRPRAATF-NH2 (SEQ ID NO:1) peptide substrate. CSF-1R kinase was added at final concentration of 4 nM.

Test [2] has as its target T2, PDGFRb (Homo sapiens, UniProt P09619).
T2 construct: The kinase domain of PDGFRβ was assayed in 50 mM Hepes; purchased Invitrogen P3082
The experiment in a line: PDGFRb kinase in vitro biochemical assay (alphascreen). The following applies: tested at about 1 μM; read-out: PDGF RK BETA percent inhibition. As for the experimental part: (§1) The IC50 values for the inhibition of RTKs were determined in the alphascreen format measuring the inhibition by compound of phosphate transfer to a substrate by the respective enzyme. Briefly, the respective RTK domain purchased as human recombinant protein (cKIT Upstate #14-559, PDGFRb Invitrogen #P3082) were incubated with serial dilutions of compound in the presence of substrate and ATP concentrations within 3 times the Km of the enzyme.
(§2) The kinase domain of cKIT was assayed in 50 mM Hepes, pH=7.5, 5 mM MgCl2, 10 mM MnCl2, 1 mM DTT, 0.1% BSA with 0.06 uM biotinylated peptide substrate (GGLFDDPSYVNVQNL-NH2) and 15 uM ATP (ATP KM apparent=15 uM). The kinase domain of PDGFRβ was assayed in 50 mM Hepes, pH=7.5, 20 mM MgCl2, 1 mM DTT, 0.1% BSA with 0.1 uM biotinylated peptide substrate (GGLFDDPSYVNVQNL-NH2) and 10 uM ATP (ATP KM apparent=25 uM). Reactions were incubated at room temperature for 3 to 4 hr and stopped with buffer (20 mM EDTA, 0.01% Tween-20 for both PDGFRb and cKIT). Alphascreen PY20 beads were added to the stopped cKIT reactions and PY20 Ab/Protein A Alphascreen beads were added to the PDGFRβ stopped reactions. Both reactions were incubated overnight and read on the Alphascreen reader. The concentration of compound for 50% inhibition (IC50) was calculated employing non-linear regression using XL-Fit data analysis software. As a control compound, staurosporine is run in every assay and a Z′>0.5 is required to validate results.
In general terms: Bead proximity is the source of the signal in Alpha formats.

The target of test [3] is T3, cKIT (Homo sapiens, UniProt P10721).
T3 construct: The kinase domain of cKIT was assayed in 50 mM Hepes; purchased Upstate 14-559
T3 sequence (P10721 589-937 limits assumed): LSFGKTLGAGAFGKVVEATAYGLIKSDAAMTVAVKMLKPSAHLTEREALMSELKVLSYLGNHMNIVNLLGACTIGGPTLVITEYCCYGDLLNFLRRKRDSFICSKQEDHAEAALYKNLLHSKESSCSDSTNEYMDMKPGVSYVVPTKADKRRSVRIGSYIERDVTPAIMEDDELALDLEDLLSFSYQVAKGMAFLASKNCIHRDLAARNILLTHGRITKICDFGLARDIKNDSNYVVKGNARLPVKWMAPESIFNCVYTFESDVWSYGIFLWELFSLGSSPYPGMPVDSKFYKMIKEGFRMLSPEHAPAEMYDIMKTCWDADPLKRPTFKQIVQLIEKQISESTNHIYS
The test is described as follows: cKIT kinase in vitro biochemical assay (alphascreen). The following applies: tested at about 1 μM; read-out: CKIT percent inhibition. As for the experimental part:
as §1, §2

T2 sequence (P09619 600-962 limits assumed): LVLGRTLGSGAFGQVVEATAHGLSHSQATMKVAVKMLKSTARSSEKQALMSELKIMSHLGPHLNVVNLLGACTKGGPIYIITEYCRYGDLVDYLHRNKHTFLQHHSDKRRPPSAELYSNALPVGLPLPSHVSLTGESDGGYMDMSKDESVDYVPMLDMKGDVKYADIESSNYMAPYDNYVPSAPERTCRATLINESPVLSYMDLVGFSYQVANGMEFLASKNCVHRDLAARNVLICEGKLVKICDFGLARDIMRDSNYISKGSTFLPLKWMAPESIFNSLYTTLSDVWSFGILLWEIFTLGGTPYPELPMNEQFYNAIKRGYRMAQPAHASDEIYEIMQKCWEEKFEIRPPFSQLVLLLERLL

The term inhibition denotes the change of the read-out against control, counted positive when it falls. In the case of `Clc1cc(Oc2ccc3nc(NCC4CCCCC4)sc3c2)ncn1` [Compound 2, 6-(6-chloropyrimidin-4-yloxy)-N-(cyclohexylmethyl)benzo[d]thiazol-2-amine], the inhibition at 1 µM came to 78% in test [1], 6% in test [2] and 11% in test [3].

With `Nc1cc(Oc2ccc3nc(NCC4CCCCC4)sc3c2)nc(N)n1` [Compound 3, 6-(2-(cyclohexylmethylamino)benzo [d]thiazol-6-yloxy) pyrimidine-2,4-diamine], the inhibition at 1 µM was 19% in test [1], 0% in test [2] and 23% in test [3].

`Clc1nccc(Oc2ccc3nc(NCC4CCCCC4)sc3c2)n1` [Compound 4, 6-(2-chloropyrimidin-4-yloxy)-N-(cyclohexylmethyl) benzo[d]thiazol-2-amine]: the inhibition at 1 µM was determined as 73% in test [1], 0% in test [2] and 23% in test [3].

Turning to `O[C@@H]1CCCC[C@H]1Nc1nc2ccc(Oc3cc(Cl)ncn3)cc2s1` [Compound 5, (1R,2R)-2-(6-(6-chloropyrimidin-4-yloxy)benzo[d]thiazol-2-ylamino) cyclohexanol], the inhibition at 1 µM worked out at 41% in test [1], 0% in test [2] and 25% in test [3].

In the case of `O[C@@H]1CCCC[C@H]1Nc1nc2ccc(Oc3ccnc(Cl)n3)cc2s1` [Compound 6, (1R,2R)-2-(6-(2-chloropyrimidin-4-yloxy)benzo[d]thiazol-2-ylamino) cyclohexanol], the figures for the inhibition at 1 µM in test [1], in test [2] and in test [3] were 18%, 0% and 19%, respectively.

`c1nc(Oc2ccc3nc(NCC4CCCCC4)sc3c2)cc(N2CCOCC2)n1` [Compound 11, N-(cyclohexylmethyl)-6-(6-morpholinopyrimidin-4-yloxy)benzo[d]thiazol-2-amine]: the inhibition at 1 µM in test [1] was determined as 68%; in test [2], 13%; in test [3], 19%.

For the compound `CC(=O)NCCNc1cc(Oc2ccc3nc(NCC4CCCCC4)sc3c2)ncn1` [Compound 12, N-(2-(6-(2-(cyclohexylmethylamino)benzo[d]thiazol-6-yloxy)pyrimidin-4-ylamino)ethyl) acetamide], the values for the inhibition at 1 µM in test [1], in test [2] and in test [3] were 80%, 37% and 13%, respectively.

Take `CC(=O)NCCNc1cc(Oc2ccc3nc(NCC4CCCCC4)sc3c2)nc(N)n1` [Compound 14, N-(2-(2-amino-6-(2-(cyclohexyl-methylamino)benzo[d]thiazol-6-yloxy)pyrimidin-4-ylamino)ethyl)acetamide]: the inhibition at 1 µM in test [1] was 26%; in test [2], 0%; in test [3], 23%.

Turning to `c1cc(Oc2ccc3nc(NCC4CCCCC4)sc3c2)nc(N2CCOCC2)n1` [Compound 15, N-(cyclohexylmethyl)-6-(2-morpholinopyrimidin-4-yloxy)benzo[d]thiazol-2-amine], the results for the inhibition at 1 µM in test [1], in test [2] and in test [3] were 94%, 16% and 26%, respectively.

Regarding `CC(=O)NCCNc1nccc(Oc2ccc3nc(NCC4CCCCC4)sc3c2)n1` [Compound 16, N-(2-(4-(2-(cyclohexylmethylamino)benzo[d]thiazol-6-yloxy)pyrimidin-2-ylamino)ethyl) acetamide], the results for the inhibition at 1 µM in test [1], in test [2] and in test [3] were 89%, 35% and 22%, respectively.

In the case of `C[C@H](Nc1nc2ccc(Oc3cc(Cl)ncn3)cc2s1)C1CCCCC1` [Compound 35, (S)-6-(6-chloropyrimidin-4-yloxy)-N-(1-cyclohexylethyl) benzo[d]thiazol-2-amine], the inhibition at 1 µM was 79% in test [1], 2% in test [2] and 20% in test [3].

In the case of `C[C@H](Nc1nc2ccc(Oc3ccnc(Cl)n3)cc2s1)C1CCCCC1` [Compound 36, (S)-6-(2-chloropyrimidin-4-yloxy)-N-(1-cyclohexylethyl)benzo[d]thiazol-2-amine], the inhibition at 1 µM in test [1] is 59%; in test [2] it was 0%; in test [3], 19%.

With `c1nc(Oc2ccc3nc(NCC4CCCCC4)sc3c2)c2sccc2n1` [Compound 38, N-(cyclohexylmethyl)-6-(thieno[3,2-d]pyrimidin-4-yloxy) benzo[d]thiazol-2-amine], the inhibition at 1 µM was found to be 100% in test [1], 83% in test [2] and 99% in test [3].

Turning to `C[C@H](Nc1nc2ccc(Oc3cc(-n4cncn4)ccn3)cc2s1)C1CCCCC1` [Compound 39, (S)-6-(4-(1H-1,2,4-triazol-1-yl)pyridin-2-yloxy)-N-(1-cyclohexylethyl) benzo[d]thiazol-2-amine], the inhibition at 1 µM in test [1] was determined as 27%; in test [2] it was 0%; in test [3], 33%.

As for `C[C@H](Nc1nc2ccc(Oc3cncc(-n4cncn4)n3)cc2s1)C1CCCCC1` [Compound 40, (S)-6-(6-(1H-1,2,4-triazol-1-yl)pyrazin-2-yloxy)-N-(1-cyclobexylethyl)benzo[d]thiazol-2-amine], the inhibition at 1 µM is 68% in test [1], 17% in test [2] and 32% in test [3].

As to `O[C@@H]1CCCC[C@H]1Nc1nc2ccc(Oc3cncc(-n4cncn4)n3)cc2s1` [Compound 42, (1R,2R)-2-(6-(6-(1H-1,2,4-triazol-1-yl)pyrazin-2-yloxy)benzo[d]thiazol-2-ylamino)cyclohexanol], the inhibition at 1 µM in test [1] amounted to 51%; in test [2] it was 10%; in test [3], 9%.

As for `O[C@@H]1CCCC[C@H]1Nc1nc2ccc(Oc3cc(-n4cncn4)ncn3)cc2s1` [Compound 43, (1R,2R)-2-(6-(6-(1H-1,2,4-triazol-1-yl)pyrimidin-4-yloxy)benzo[d]thiazol-2-ylamino)cyclohexanol], the inhibition at 1 µM is 57% in test [1], 14% in test [2] and 15% in test [3].

In the case of `CNC(=O)c1ccncc1Oc1ccc2nc(NCC3CCCCC3)sc2c1` [Compound 49, 3-(2-(cyclohexylmethylamino)benzo[d]thiazol-6-yloxy)-N-methylisonicotinamide], the inhibition at 1 µM in test [1] was determined as 95%; in test [2] it was 6%; in test [3], 32%.

In the case of `CNC(=O)c1cncc(Oc2ccc3nc(NCC4CCCCC4)sc3c2)n1` [Compound 50, 6-(2-(cyclohexylmethylamino)benzo [d]thiazol-6-yloxy)-N-methylpyrazine-2-carboxamide], the figures for the inhibition at 1 µM in test [1], in test [2] and in test [3] were 98%, 11% and 32%, respectively.
